Experimental data published in patent US4221909A, “P-Acetamidobenzoic acid salts of 9-(hydroxyalkyl) purines” (Sloan-Kettering Institute for Cancer Research, priority 1978, dated 1980).

Key:
herpes hominis type 2 = assay: Anti-Herpes Activity (Plaque Assay); assay type: cell-based; conditions: concentrations less than 100 μg/ml
Source text: The infection of tissue culture cells by Herpes virus causes cell lysis. After a period of time these lysed cells are visualized as a tiny clear area (plaque) on a layer of cells. The incorporation of a test substance into the media will reduce the number of plaques if it is capable of preventing virus replication. The method is as follows:
There was employed herpes hominis type 2 purchased from American Type Culture Collection (ATCC), Bethesda, Md., ATCC #VR 540, Lot 3D. The lyophilized viral suspension was reconstituted with 1 ml sterile distilled H2 O. The virus was passed twice through HeLa-cell monolayers. The tissue-culture supernates were pooled, dispensed in 1-ml aliquots, and stored at -70° C.
Vero cells in log-growth phase were subcultured at a concentration of 1×10^5 cells/ml in 50-ml Falcon flasks in Eagle's Minimum Essential Medium (MEM), supplemented with 10% fetal calf serum (FCS) and antibiotics. Media were changed the day following planting. […]
Agarose was prepared at a concentration of 6% w/v in 50 ml PBS. […] In addition, a 1:10 dilution of pooled human anti-herpes sera was readied. […]
Plaques were counted either directly by transmitted fluorescent light and macroviewing, or by the use of light microscopy for microplaques. Microplaques were counted by averaging three fields per experimental group under 150× magnification.

Phase solubility studies = assay type: physicochemical; conditions: constant pH
Source text: This is indicative of an interaction occuring in solution to yield a complex.

For `CCCCCC[C@H]([C@H](C)O)n1cnc2c(=O)[nH]cnc21` (relative stereo) [NPT 15392, Erythro-9-(2-Hydroxy-3-Nonyl)Hypoxanthine], the “reduction of plaque formation caused by Herpes Simplex virus” value (herpes hominis type 2) was over 90% and the “solubility at increasing concentrations of DIP.PAcBA” value (Phase solubility studies) was “increased solubility”.
